Laboratory results from article PMC8341910, “Structural and biophysical insights into the mode of covalent binding of rationally designed potent BMX inhibitors” (RSC Chemical Biology, 2020).
Where “and” joins values, the source holds several entries; their conditions need not be identical. Identical values can stand only once. Each block holds one compound with its values, some of them ahead of it.

Columns and labels:
[1] = tested on: RS4(11); assay: Multi cell line growth assay (CellTiter-Glo, 72 h); format: cell-based, human; conditions: Homo sapiens, RS4-11, Lung (so in the source), ND = no growth inhibition observed
[2] = tested on: PC3; assay: Multi cell line growth assay (CellTiter-Glo, 72 h); format: cell-based, human; conditions: Homo sapiens, PC-3, Prostate, ND = no growth inhibition observed
[3] = tested on: Kasumi; assay: Multi cell line growth assay (CellTiter-Glo, 72 h); format: cell-based, human; conditions: Homo sapiens, Blood, ND = no growth inhibition observed
[4] = tested on: 22 RV1; assay: Multi cell line growth assay (CellTiter-Glo, 72 h); format: cell-based, human; conditions: Homo sapiens, 22Rv1, Prostate, ND = no growth inhibition observed
[5] = tested on: U-87MG; assay: Multi cell line growth assay (CellTiter-Glo, 72 h); format: cell-based; conditions: Homo sapiens, Brain, ND = no growth inhibition observed
[6] = tested on: LNCaP; assay: Multi cell line growth assay (CellTiter-Glo, 72 h); format: cell-based, human; conditions: Homo sapiens, LNCaP, Prostate, ND = no growth inhibition observed within the concentrations tested
[7] = tested on: CAOV3; assay: Multi cell line growth assay (CellTiter-Glo, 72 h); format: cell-based, human; conditions: Homo sapiens, Caov-3, Ovary, ND = no growth inhibition observed
[8] = target: T1, His6-hsBMX (Homo sapiens, UniProt P51813); assay: Surface plasmon resonance (SPR); format: binding; conditions: 1:1 Langmuir fit, 25 °C
T1 construct: Crystallization, data collection, and structure determination of BMX catalytic domain in; made in house; host or cells: Sf-9 insect cells
Excerpt: response upon compound injection (t=0s), or upon washing (t=220s), on immobilized His6-
hsBMX surfaces. Compound concentrations injected on already saturated surfaces were not
included in the 1:1 Langmuir fitting model. X-axis: time (s); y-axis: response (arbitrary units).
Inset plots [x-axis: compound concentration (M); y-axis: response (arbitrary units)] show the
steady-state affinity (KDss) fit for the interactions wherein equilibrium was reached.
Surface Plasmon Resonance:
The kinetic and affinity parameters of protein-compound interaction were evaluated by SPR.
Experiments were carried out in a Biacore 4000 instrument (Biacore AB, GE Healthcare Life
Sciences, Uppsala, Sweden) at 25 °C. His6-BMX protein was diluted to 10 µg/mL in sodium
acetate pH 5.5, in the presence of 5 µM staurosporine and immobilized onto CM5 (Series S)
sensor chips, using the standard amine coupling procedure. Prior to immobilization, the
carboxymethylated surface of the chip was activated with 400 mM 1-ethyl-3-(3-
dimethylaminopropyl)-carbodiimide and 100 mM N-hydroxysuccinimide for 10 min. HBS-N
(10 mM HEPES pH7.4, 150mM NaCl) was used as the background buffer. Protein was coupled
to the surface after 2 to 10 min injection times, at a flow rate of 10 µL/min, in order to reach
1500 to 3500 response units (RU). The remaining activated carboxymethylated groups were
blocked with a 7 min injection of 1 M ethanolamine pH 8.5. Compounds were pre-diluted in
DMSO to 50x the desired highest tested concentration and diluted afterwards in running buffer
(20 mM HEPES pH 7.4, 150 mM NaCl, 1 mM DTT, 0.1 mM EGTA, 0.05 % (v/v) TWEEN-
20, 5 mM MgCl2) in order to reach 2% of DMSO concentration. A DMSO solvent correction
(1% - 3%) was performed to account for variations in bulk signal and to achieve high-quality
data. Each compound was injected over immobilized His6-BMX for 220 s (30 µL min-1;
association phase) followed by 600 to 2000 s of buffer flow (dissociation phase) at a maximum
five times in 2-fold dilution series. All sensorgrams were processed by first subtracting the
binding response recorded from the control surface (reference spot), followed by subtracting
the buffer blank injection from the reaction spot. All datasets were fit to a simple 1:1 Langmuir
interaction model with the provided Biacore 4000 Evaluation software, to determine kinetic rate constants (kon, koff) or steady-state affinity (KDss).

[9] = tested on: SK-N-MC; assay: Multi cell line growth assay (CellTiter-Glo, 72 h); format: cell-based, human; conditions: Homo sapiens, SK-N-MC, Brain, ND = no growth inhibition observed
[10] = target: TYK2(JH1domain-catalytic) (Homo sapiens, UniProt P29597); assay: KINOMEscan binding; conditions: read-out: % Ctrl TYK2(JH1domain-catalytic)
Procedure: (§1) Therefore, we included the whole TEC, EGFR and JAK family in our screening, and the Src family and Lkb1, which also have a cysteine within the same sequence alignment. We also included kinases involved in upstream (Src, FAK, PI3K, mTOR, PDK1) and downstream (Akt, PAK1, TAM) regulation of BMX signaling pathway and non-receptor tyrosine protein kinase Abl.
(§2) Kinome selectivity was performed with DiscoverX KINOMEscan™ technology.

[11] = target: LCK (Homo sapiens, UniProt P06239); assay: KINOMEscan binding; conditions: read-out: % Ctrl LCK
Procedure: (§3) Therefore, we included the whole TEC, EGFR and JAK family in our screening, and the Src family and Lkb1, which also have a cysteine within the same sequence alignment.
as §2

[12] = target: TXK (Homo sapiens, UniProt P42681); assay: KINOMEscan binding; conditions: read-out: % Ctrl TXK
Procedure: as §3, §2

[13] = target: PIK3CD (Homo sapiens, UniProt O00329); assay: KINOMEscan binding; conditions: read-out: % Ctrl PIK3CD
Procedure: as §1, §2

[14] = target: ERBB3 (Homo sapiens, UniProt P21860); assay: KINOMEscan binding; conditions: read-out: % Ctrl ERBB3
Procedure: as §3, §2

[15] = target: FGR (Homo sapiens, UniProt P09769); assay: KINOMEscan binding; conditions: read-out: % Ctrl FGR
Procedure: as §3, §2

[16] = target: MTOR (Homo sapiens, UniProt P42345); assay: KINOMEscan binding; conditions: read-out: % Ctrl MTOR
Procedure: as §1, §2

[17] = target: T2, wild-type BMX in PC3 cells (Homo sapiens, UniProt P51813); assay: BMX degradation assay in PC3 cells (Western blot); format: cell-based; conditions: 10 μM; 24 h and 72 h; band intensity normalized to α-Tubulin
T2 construct: endogenous in cells; host or cells: PC3 prostate cancer cells (wild-type, untransfected)
Procedure: The cell proliferation depends on BMX kinase activity that was used to monitor the cellular activity of the compounds (IC50). […].  Fig. 5 (a) Intracellular target engagement in HEK293 cells transiently transfected with BMX expressing NanoLuc®-BMX fusion vector with Promega's NanoBRET™ TE Intracellular Kinase Assay. […] Band intensity was measured using ImageJ and normalized with α-Tubulin band intensity. […] Data are mean ± standard deviation obtained from at least three independent measurements (n = 3). See ESI ^† for additional data and analysis. […] | page 12: […]
degradation assay. Protein band intensity normalized with α-Tubulin band intensity and quantified using ImageJ. Data was obtained from at least three independent measurements […]
concentration against PC3 cells, plated on 6-well plates, a day after attachment. DMSO was used as a control vehicle. At 24 h and 72 h of incubation, cells were washed in 1X PBS and lysed in 100 µL RIPA Buffer (in house) supplemented with EDTA-free Protease Inhibitor Cocktail (Merk) and DNase I (Merk). The lysis procedure was performed by re-suspending cells continuously, followed by a incubation of 30 min on ice. BMX antibody (Abcam) and tubulin antibody (Cell signaling Technology) were used in the Western blot. Band intensity […]

[18] = target: YES1 (Homo sapiens, UniProt P07947); assay: KINOMEscan binding; conditions: read-out: % Ctrl YES1
Procedure: as §3, §2

[19] = target: STK11 (Homo sapiens, UniProt Q15831); assay: KINOMEscan binding; conditions: read-out: % Ctrl STK11
Procedure: as §1, §2

[20] = target: AKT1 (Homo sapiens, UniProt P31749); assay: KINOMEscan binding; conditions: read-out: % Ctrl AKT1
Procedure: as §1, §2

[21] = target: BTK (Homo sapiens, UniProt Q06187); assay: KINOMEscan binding; conditions: read-out: % Ctrl BTK
Procedure: as §3, §2

[22] = target: NanoLuc®-BMX fusion vector in HEK293 cells (Homo sapiens, UniProt P51813); assay: NanoBRET TE intracellular kinase assay; format: cell-based; conditions: HEK293 transiently transfected with BMX; 1 h; duplicate, mean ± S.D.; read-out: intracellular target engagement IC50
Procedure: Target Engagement Intracellular Kinase Assay:
In-cell target engagement was performed at the Reaction Biology Corporation (USA) using the NanoBRETTM technology. Very briefly, HEK296 cells, purchased from ATCC, were
with the reference compound Dasatinib, for 1 hour of incubation. Compounds were diluted 10 times with 3-fold dilution, starting at 1 µM. Curve fits were performed only when % NanoBret
determined using the GraphPad Prism 8 (USA).

[23] = target: AKT3 (Homo sapiens, UniProt Q9Y243); assay: KINOMEscan binding; conditions: read-out: % Ctrl AKT3
Procedure: as §1, §2

[24] = target: EGFR (Homo sapiens, UniProt P00533); assay: KINOMEscan binding; conditions: read-out: % Ctrl EGFR
Procedure: as §3, §2

[25] = target: JAK2(JH1domain-catalytic) (Homo sapiens, UniProt O60674); assay: KINOMEscan binding; conditions: read-out: % Ctrl JAK2(JH1domain-catalytic)
Procedure: as §1, §2

[26] = target: BLK (Homo sapiens, UniProt P51451); assay: KINOMEscan binding; conditions: read-out: % Ctrl BLK
Procedure: as §3, §2

[27] = target: PIK3CG (Homo sapiens, UniProt P48736); assay: KINOMEscan binding; conditions: read-out: % Ctrl PIK3CG
Chain of PIK3CG (P48736 whole entry): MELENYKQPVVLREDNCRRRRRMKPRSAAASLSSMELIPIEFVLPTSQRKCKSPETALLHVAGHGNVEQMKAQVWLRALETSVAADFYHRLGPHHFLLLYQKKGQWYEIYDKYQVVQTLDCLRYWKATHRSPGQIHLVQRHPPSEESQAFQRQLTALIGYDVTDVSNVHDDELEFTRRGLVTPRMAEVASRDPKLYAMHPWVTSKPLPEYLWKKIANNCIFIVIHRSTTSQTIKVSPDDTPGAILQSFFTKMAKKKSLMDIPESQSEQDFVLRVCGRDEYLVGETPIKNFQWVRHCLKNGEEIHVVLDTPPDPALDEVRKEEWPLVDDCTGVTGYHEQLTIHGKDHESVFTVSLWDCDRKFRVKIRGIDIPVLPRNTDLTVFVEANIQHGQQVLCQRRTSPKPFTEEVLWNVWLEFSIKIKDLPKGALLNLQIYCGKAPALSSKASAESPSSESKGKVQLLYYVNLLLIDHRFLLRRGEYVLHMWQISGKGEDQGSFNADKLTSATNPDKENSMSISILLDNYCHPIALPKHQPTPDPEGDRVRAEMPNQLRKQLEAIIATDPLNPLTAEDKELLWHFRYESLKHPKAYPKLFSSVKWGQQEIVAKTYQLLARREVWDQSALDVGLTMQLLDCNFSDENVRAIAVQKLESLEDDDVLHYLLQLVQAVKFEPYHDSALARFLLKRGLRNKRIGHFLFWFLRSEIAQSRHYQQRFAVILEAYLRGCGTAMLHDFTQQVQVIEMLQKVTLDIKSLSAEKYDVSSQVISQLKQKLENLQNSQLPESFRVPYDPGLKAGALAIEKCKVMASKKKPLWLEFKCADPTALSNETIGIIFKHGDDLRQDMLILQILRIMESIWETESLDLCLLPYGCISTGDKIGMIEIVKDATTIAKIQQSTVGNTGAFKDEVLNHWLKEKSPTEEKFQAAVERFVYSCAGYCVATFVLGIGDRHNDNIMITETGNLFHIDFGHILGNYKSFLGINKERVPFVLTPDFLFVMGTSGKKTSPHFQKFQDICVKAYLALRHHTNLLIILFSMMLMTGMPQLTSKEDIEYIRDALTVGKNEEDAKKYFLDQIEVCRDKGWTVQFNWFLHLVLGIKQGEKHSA
Procedure: as §1, §2

T1 sequence (P51813 417-675 limits assumed): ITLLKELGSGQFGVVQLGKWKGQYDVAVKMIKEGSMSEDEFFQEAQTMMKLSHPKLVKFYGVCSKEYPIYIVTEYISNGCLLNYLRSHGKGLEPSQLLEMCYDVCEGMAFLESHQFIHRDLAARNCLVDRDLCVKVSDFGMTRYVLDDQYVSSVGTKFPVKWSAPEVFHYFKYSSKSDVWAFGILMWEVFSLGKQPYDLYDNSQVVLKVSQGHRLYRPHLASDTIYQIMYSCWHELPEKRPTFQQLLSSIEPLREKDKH
Chain of NanoLuc®-BMX fusion vector in HEK293 cells (P51813 whole entry, the tested form may be a part): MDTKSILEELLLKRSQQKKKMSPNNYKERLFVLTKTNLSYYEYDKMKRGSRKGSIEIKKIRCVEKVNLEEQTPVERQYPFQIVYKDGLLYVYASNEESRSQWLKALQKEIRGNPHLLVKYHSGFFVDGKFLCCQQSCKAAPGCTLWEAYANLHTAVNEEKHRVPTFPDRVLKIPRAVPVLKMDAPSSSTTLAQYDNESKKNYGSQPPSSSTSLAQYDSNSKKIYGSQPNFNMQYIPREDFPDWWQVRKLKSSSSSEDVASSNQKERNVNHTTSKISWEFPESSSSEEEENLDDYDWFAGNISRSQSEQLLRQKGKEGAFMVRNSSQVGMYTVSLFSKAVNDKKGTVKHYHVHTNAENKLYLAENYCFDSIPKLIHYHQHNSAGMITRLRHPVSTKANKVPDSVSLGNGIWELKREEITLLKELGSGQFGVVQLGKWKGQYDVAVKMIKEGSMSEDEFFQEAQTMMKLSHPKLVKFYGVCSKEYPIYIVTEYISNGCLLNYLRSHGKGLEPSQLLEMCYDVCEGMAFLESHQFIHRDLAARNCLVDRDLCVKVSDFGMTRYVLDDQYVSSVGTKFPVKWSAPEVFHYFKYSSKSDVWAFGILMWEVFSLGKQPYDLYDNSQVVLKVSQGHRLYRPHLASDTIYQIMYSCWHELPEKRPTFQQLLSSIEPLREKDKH
Chain of BTK (Q06187 whole entry, species assumed, the tested form may be a part): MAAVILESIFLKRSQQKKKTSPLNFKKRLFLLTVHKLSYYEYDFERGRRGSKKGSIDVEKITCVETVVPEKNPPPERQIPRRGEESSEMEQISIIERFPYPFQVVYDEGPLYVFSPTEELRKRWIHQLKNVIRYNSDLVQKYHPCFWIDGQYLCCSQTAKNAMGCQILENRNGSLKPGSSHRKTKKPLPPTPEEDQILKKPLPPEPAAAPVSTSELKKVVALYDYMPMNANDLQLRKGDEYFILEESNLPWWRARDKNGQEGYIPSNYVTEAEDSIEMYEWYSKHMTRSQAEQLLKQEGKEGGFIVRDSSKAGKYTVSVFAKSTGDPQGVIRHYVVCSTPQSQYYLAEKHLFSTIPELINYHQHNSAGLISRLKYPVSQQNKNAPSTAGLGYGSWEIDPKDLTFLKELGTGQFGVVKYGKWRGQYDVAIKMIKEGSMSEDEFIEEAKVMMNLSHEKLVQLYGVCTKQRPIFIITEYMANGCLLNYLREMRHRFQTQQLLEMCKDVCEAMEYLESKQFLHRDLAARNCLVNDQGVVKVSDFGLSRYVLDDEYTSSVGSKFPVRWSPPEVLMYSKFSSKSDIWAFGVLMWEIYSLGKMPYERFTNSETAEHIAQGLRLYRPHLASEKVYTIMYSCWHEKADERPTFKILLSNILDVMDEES
Chain of BLK (P51451 whole entry): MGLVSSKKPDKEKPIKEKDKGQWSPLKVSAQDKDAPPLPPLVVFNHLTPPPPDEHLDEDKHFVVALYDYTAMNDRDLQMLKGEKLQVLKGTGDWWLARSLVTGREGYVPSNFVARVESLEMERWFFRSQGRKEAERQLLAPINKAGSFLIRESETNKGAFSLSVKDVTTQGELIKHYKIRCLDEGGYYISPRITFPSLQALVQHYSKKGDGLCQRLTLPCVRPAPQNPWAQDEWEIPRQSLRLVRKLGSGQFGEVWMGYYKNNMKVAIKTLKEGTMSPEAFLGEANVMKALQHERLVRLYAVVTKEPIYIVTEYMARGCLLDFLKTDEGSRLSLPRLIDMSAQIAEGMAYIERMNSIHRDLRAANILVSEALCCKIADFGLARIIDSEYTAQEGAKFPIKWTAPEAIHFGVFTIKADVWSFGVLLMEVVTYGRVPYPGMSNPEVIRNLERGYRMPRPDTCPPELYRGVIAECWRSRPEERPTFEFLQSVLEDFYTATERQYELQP
Chain of TXK (P42681 whole entry): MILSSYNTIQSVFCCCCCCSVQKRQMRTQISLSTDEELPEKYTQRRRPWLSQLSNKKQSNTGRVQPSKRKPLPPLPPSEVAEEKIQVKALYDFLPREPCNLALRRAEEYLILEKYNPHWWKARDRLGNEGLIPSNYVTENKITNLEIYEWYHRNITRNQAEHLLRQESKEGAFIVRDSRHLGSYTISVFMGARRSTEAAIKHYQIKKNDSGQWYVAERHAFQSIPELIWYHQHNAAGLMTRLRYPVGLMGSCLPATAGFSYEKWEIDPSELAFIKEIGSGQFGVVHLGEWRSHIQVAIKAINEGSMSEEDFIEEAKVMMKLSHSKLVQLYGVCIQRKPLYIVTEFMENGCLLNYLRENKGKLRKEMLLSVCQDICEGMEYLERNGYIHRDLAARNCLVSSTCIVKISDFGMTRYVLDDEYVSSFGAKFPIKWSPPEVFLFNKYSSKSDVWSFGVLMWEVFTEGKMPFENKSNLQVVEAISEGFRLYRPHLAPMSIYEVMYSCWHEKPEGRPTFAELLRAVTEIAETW
Chain of AKT1 (P31749 whole entry): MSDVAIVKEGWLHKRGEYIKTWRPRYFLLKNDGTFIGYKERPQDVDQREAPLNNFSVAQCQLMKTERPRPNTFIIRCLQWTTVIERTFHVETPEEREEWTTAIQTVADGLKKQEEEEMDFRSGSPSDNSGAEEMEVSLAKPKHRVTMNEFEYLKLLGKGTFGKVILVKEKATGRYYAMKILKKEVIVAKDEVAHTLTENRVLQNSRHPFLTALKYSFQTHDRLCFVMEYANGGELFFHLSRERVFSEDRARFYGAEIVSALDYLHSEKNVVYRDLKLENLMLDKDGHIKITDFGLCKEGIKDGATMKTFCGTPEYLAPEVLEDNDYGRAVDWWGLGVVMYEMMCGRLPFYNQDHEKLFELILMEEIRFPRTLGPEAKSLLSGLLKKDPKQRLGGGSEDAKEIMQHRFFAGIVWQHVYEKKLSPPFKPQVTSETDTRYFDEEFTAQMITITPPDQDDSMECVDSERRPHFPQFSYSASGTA
Chain of YES1 (P07947 whole entry): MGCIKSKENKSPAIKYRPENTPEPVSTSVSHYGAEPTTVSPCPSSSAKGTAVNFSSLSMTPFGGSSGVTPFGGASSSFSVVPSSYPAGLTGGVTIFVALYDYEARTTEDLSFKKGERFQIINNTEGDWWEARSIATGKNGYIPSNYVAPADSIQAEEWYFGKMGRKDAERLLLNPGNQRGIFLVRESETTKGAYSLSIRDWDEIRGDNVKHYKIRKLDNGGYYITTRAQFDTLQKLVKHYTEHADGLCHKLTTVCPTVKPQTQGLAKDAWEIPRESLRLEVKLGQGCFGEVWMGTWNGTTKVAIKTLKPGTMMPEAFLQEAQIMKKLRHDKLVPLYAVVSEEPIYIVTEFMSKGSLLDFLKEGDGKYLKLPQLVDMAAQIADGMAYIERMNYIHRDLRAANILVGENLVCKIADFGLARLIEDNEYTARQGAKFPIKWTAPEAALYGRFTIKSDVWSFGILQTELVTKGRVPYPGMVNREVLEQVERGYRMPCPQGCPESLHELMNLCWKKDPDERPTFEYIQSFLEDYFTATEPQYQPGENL
T2 sequence (P51813 whole entry): as the sequence (P51813 whole entry, the tested form may be a part) above

GI50 [1]: 2.09 µM
GI50 [2]: 4.8 µM
GI50 [5]: 5.04 ± 0.01 µM
GI50 [6]: 4.4 µM
koff [8]: < 0.0001 s⁻¹
kon [8]: 140000 M⁻¹ s⁻¹
GI50 [9]: 8.53 ± 0.44 µM
Compound: C=CC(=O)Nc1cc(-n2c(=O)ccc3cnc4cc(-c5ccc(NS(C)(=O)=O)cc5)ccc4c32)ccc1C [JS24]
GI50 [3]: 5.12 ± 0.12 µM
GI50 [4]: 6.66 ± 0.09 µM
GI50 [7]: 8.56 µM

Compound: C=CC(=O)Nc1cc(C)cc(-n2c(=O)ccc3cnc4cc(-c5ccc(NS(C)(=O)=O)cc5)ccc4c32)c1 [JS25]
remaining binding at 1 µM [10]: 100%
remaining binding at 1 µM [11]: 80%
remaining binding at 1 µM [12]: 3.4%
remaining binding at 1 µM [13]: 100%
remaining binding at 1 µM [14]: 91%
remaining binding at 1 µM [15]: 93%
remaining binding at 1 µM [16]: 100%
degradation of BMX protein [17]: induce degradation of wild-type BMX in PC3 cells
remaining binding at 1 µM [18]: 85%
remaining binding at 1 µM [19]: 52%
remaining binding at 1 µM [20]: 100%
remaining binding at 1 µM [21]: 0%
IC50 [22]: 0.0448 µM and 0.045 µM
remaining binding at 1 µM [23]: 99%
remaining binding at 1 µM [24]: 87%
remaining binding at 1 µM [25]: 81%
remaining binding at 1 µM [26]: 16%
remaining binding at 1 µM [27]: 64%
